What was measured:
MMP-2 [1] = target: T1, MMP-2 (Homo sapiens, UniProt P08253); test: EnzChek Gelatinase/Collagenase Assay Kit; format: biochemical; settings: 3% DMSO; APMA-activated MMP-2; 24 h incubation
T1 construct: made in house
T1 sequence (P08253 110-660): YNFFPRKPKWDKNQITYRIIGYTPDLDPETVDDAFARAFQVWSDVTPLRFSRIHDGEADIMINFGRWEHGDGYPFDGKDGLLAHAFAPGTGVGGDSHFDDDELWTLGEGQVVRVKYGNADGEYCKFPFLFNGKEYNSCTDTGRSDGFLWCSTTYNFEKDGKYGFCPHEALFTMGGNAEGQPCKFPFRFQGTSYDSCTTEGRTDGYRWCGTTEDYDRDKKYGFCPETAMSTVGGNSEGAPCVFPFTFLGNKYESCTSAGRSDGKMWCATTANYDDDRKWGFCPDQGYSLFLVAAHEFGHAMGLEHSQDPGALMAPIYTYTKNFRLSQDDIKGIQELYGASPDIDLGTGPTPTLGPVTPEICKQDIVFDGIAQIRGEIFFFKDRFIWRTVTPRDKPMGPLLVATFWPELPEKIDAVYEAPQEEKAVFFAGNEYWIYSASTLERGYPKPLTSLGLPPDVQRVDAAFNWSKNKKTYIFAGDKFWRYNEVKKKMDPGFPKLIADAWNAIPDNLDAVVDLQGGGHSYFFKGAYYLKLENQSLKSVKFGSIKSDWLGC
Method: (§1) EnzChek Gelatinase/Collagenase Assay Kit (Molecular Probes, Eugene, Oreg., USA) was used to detect the effect of DMSO on the gelatinolytic activities of MMP-2 and -9 according to manufacturer's protocol. Briefly, 3 ng of MMP-2 (purified from cell culture media), 3 ng MMP-9 (purified from cell culture media), and 5 ng of recombinant MMP-9 (Chemicon) were diluted into the reaction buffer (50 mM Tris-HCl, 150 mM NaCl, 5 mM CaCl2, 0.2 mM NaN3, pH 7.6) and incubated with quenched fluorescein-conjugated gelatin (50 μg/ml) and 0%, 0.01%, 0.1%, 0.5%, 1%, 2%, 3%, 4% or 5% of DMSO in a black-walled 96 well microplate at RT in dark. Fluorescent intensity indicating the gelatinolysis was measured at multiple time points with Fluoromax2/Micromax fluorometer (ISA Jobin Yvon-Spex, Edison, N.J., USA). Analyses were performed as quadruplicates. The relative intensities were calculated against 0% of DMSO.

MMP-2 [2] = test: EnzChek Gelatinase/Collagenase Assay Kit; format: biochemical; settings: 4 to 5% DMSO; non-activated (no APMA) and activated (APMA) MMP-2
Method: as §1

[3] = tested on: gelatinases MMP-2 and MMP-9; test: Gelatin zymography; format: biochemical, human
Method: Gelatin zymography was performed in 10% SDS-PAGE containing 1 mg/ml labelled gelatin in a usual fashion (Invitrogen, Carlsbad, Calif., USA) (O'Grady et al. 1984). After the electrophoresis, SDS was removed by 2.5% Triton X-100 to renature the gelatinases. Gels were then incubated overnight at 37° C. in 50 mM Tris-HCl buffer (5 mM CaCl2, 1 μM ZnCl2, 0.02% NaN3, pH 7.5) zymography incubation buffer with 0%, 0.1%, 2.5%, 5%, 10% or 20% of DMSO to observe the effect of DMSO concentration on the MMP activity. The degradation of gelatin was visualized under UV light. Gels were also stained with 0.5% Coomassie Blue R-250. The intensities of the bands were quantified by ScionImage software (Scion Corporation, Frederick, Mass., USA). The analysis was done as triplicates, and relative amounts against 0% DMSO were calculated.

[4] = tested on: dentin collagenolytic enzymes; test: Hydroxyproline release from demineralized dentin beams; format: biochemical
Method: Type I collagen contains about 10 mass % hydroxyproline (HYP), an amino acid almost non-existent in other proteins. Detection of HYP release form demineralized dentin beams was used to evaluate whether DMSO would be effective in inhibiting MMPs in dentin collagen matrix, using a method described in Carrilho et al. 2009. Seventy-six dentin beams (1 mm×1 mm×9 mm) were divided into four groups (n=19 per group) and demineralized. Each beam was individually incubated in a polypropylene tubes with 1 ml of medium containing 50 mmol/L HEPES, 5 mmol/L CaCl2 2H2O, 0.001 mmol/L ZnCl2, 150 mmol/L NaCl, and 3 mmol/L NaN3, pH 7.2, that ensures availability of Zn- and Ca-ions for MMP function. The control samples were incubated in a medium without DMSO: in two groups the beams were incubated with DMSO in medium with 0.001% and 0.01% concentrations. In one group, demineralized dentin beams were immersed in 5% DMSO for 15 minutes and then incubated in a medium without DMSO for the rest of the experiment. Tubes were incubated in a water-shaker bath at 37° C. for a week. Then the medium was completely removed and quantitated for HYP content according to the colorimetric absorbance method described by Jamall et al (1981). Fresh 1 mL of medium was replaced in each tube for additional three weeks of incubation, when the media was removed and analyzed for HYP content. HYP standards were prepared from a 1 mg/mL HYP stock solution in 50% isopropanol. The resulting amount of HYP (mg/mL) was used to estimate the percentage of solubilized (degraded) collagen assuming that 90% of the dry mass of demineralized dentin beams consisted of type I collagen and that 10 mass % of collagen is HYP (Carrilho et al. 2009).

MDPC-23 cells [5] = test: Viable cell number (Trypan Blue); format: cell-based; settings: 24 h
Method: (§2) Immortalized odontoblast-like MDPC-23 cell line, frequently used for the evaluation of cytotoxicity of dental materials, was used to analyse the effect of different DMSO concentrations on pulpal cell viability. The cell culturing and methodology followed that described by Aranha et al. (2011). Briefly, DMEM culture medium with different concentrations of DMSO (0.05, 0.1, 0.3, 0.5 and 1.0 mM) were placed in contact with MDPC-23 cells (5×10^4 cells/cm^2) for 24 h. Pure DMEM was used in the control group. Twelve replicates were prepared in each group, except for flow cytometry analysis (n=8). Viable cell number (Trypan Blue), cell metabolism (production of succinic dehydrogenase enzyme-SDH, MTT assay) and cell death by necrosis (flow cytometry) were evaluated as described before (Ribeiro et al. 2010, Aranha et al. 2011).

MDPC-23 cells [6] = test: Cell death by necrosis (flow cytometry); format: cell-based; settings: 24 h
Method: as §2

MDPC-23 cells [7] = test: Cell metabolism (SDH production, MTT assay); format: cell-based; settings: 24 h
Method: as §2

## C[S+](C)[O-] [DMSO, dimethyl sulphoxide]
MMP-2 [1]
  Inhibition of MMP-2 gelatinolytic activity: statistically significant inhibition
MMP-2 [2]
  Inhibition of MMP-2 gelatinolytic activity: theoretical maximum inhibition
[3]; 0.1-20% DMSO in incubation buffer, recombinant human MMP-2 and MMP-9
  Effect on gelatinase activity (disappearance of bands): inhibitory activity
[3]; 5% DMSO (FIG. 12, FIG. 13)
  MMP inhibition: up to 75.3%
[3]; 20% DMSO (FIG. 12, FIG. 13)
  MMP inhibition: up to 94.7%
[4]; 0.001% DMSO in medium, 4-week incubation
  HYP release into the medium: significantly decreased
[4]; 0.01% DMSO in medium, 4-week incubation
  HYP release into the medium: significantly decreased
[4]; 15 minute immersion in 5% DMSO prior the 4-week incubation
  HYP release into the medium: significantly decreased
[4]; DMSO (FIG. 14)
  Demineralized dentin collagen degradation by matrix enzymes: significant decrease in collagen degradation
MDPC-23 cells [5]; 0.05 mM DMSO
  Cell number (viable cells, Trypan Blue): 3.7 (0.9) a
MDPC-23 cells [5]; 0.1 mM DMSO
  Cell number (viable cells, Trypan Blue): 4.3 (1.1) a
MDPC-23 cells [5]; 0.3 mM DMSO
  Cell number (viable cells, Trypan Blue): 4.1 (1.4) a
MDPC-23 cells [5]; 0.5 mM DMSO
  Cell number (viable cells, Trypan Blue): 4.1 (0.9) a
MDPC-23 cells [5]; 1.0 mM DMSO
  Cell number (viable cells, Trypan Blue): 4.1 (1.3) a
MDPC-23 cells [5]; 0.05-1.0 mM DMSO, p>0.05
  Number of cells vs control: no differences
MDPC-23 cells [5]; direct contact, 0.05-1.0 mM DMSO
  Cytotoxicity to odontoblast-like cells: not cytotoxic or cytophatic
MDPC-23 cells [6]; 0.05 mM DMSO
  % Cell Death (necrosis, flow cytometry): 1.2 (0.8-1.6) a %
MDPC-23 cells [6]; 0.1 mM DMSO
  % Cell Death (necrosis, flow cytometry): 1.3 (0.9-1.6) a %
MDPC-23 cells [6]; 0.3 mM DMSO
  % Cell Death (necrosis, flow cytometry): 1.2 (0.6-1.6) a %
MDPC-23 cells [6]; 0.5 mM DMSO
  % Cell Death (necrosis, flow cytometry): 1.3 (0.8-1.5) a %
MDPC-23 cells [6]; 1.0 mM DMSO
  % Cell Death (necrosis, flow cytometry): 1.3 (0.8-1.6) a %
MDPC-23 cells [6]; 0.05-1.0 mM DMSO, p>0.05
  Cell death by necrosis vs control: no differences
MDPC-23 cells [7]; 0.05 mM DMSO
  Cell metabolism (SDH production, MTT assay): 2.343 (2.287-2.387) ab
MDPC-23 cells [7]; 0.1 mM DMSO
  Cell metabolism (SDH production, MTT assay): 2.468 (2.359-2.557) a
MDPC-23 cells [7]; 0.3 mM DMSO
  Cell metabolism (SDH production, MTT assay): 2.484 (2.399-2.520) a
MDPC-23 cells [7]; 0.5 mM DMSO
  Cell metabolism (SDH production, MTT assay): 2.478 (2.294-2.542) ab
MDPC-23 cells [7]; 1.0 mM DMSO
  Cell metabolism (SDH production, MTT assay): 2.410 (2.119-2.501) ab
MDPC-23 cells [7]; 0.05-1.0 mM DMSO, not concentration-dependent
  Production of SDH enzyme vs control: Slight increase

From patent US20140050674A1, “Method for Improving Penetration or Long Term Adhesion of Compositions to Dental Tissues and Compositions Usable in Said Method” (University of Oulu, priority 2011, published 2014)
